The values below are quoted from earlier work in patent US20220347170A1, “Method of Reducing Brow Ache” (priority 2021, published 2022).

For the data set the following is noted: aceclidine alone; U.S. Pat. Nos. 9,089,562, 9,833,441 and 9,314,427.

Take `CC(=O)OC1CN2CCC1CC2` (stereo not shown) [aceclidine]: the brow ache result is reported as “significant brow ache”.
